Measurements from patent publication US10905704B2, “Agents and methods using thereof for the prevention and treatment of stem cell muscle disorders” (ECOLE POLYTECHNIQUE FEDERALE DE LAUSANNE (EPFL), priority 2015, dated 2021).

What was measured:
C2C12 myoblasts [1] = assay: Western blot of senescence and apoptosis markers in C2C12 myoblasts; assay type: cell-based, mouse; conditions: late passage C2C12 myoblasts, 6-hour NR treatment
Method: Cell culture and treatments. FACS sorted MuSCs were grown on a 10% Matrigel (Corning)-coated dish and flasks with Fams F-10 media (Gibco), supplemented with 20% fetal bovine serum (FBS, Gibco), 2.5 ng/ml basic fibroblast growth factor (bFGF, Sigma) and penicillin/streptomycin (1×, Gibco). Dishes were coated with 10% growth factor-free Matrigel solution on ice for 7 min then transferred to a 37° C. cell culture incubator overnight before use. Cells were grown for three generations in vitro before experiments with cells plated and passaged at 10^3 cells/ml and 50% confluencies, respectively. C2C12 mouse myoblasts were grown in DMEM (4.5 g/1 glucose, Gibco) supplemented with 10% FBS and penicillin/streptomycin (1×, Gibco). Western blotting. C2C12 cells were lysed in a buffer composed of 50 mM Tris, 150 mM KCl, EDTA 1 mM, NP40 1%, nicotinamide 5 mM, sodium butyrate 1 mM and protease inhibitors cocktail (Roche) at pH 7,4. Proteins were separated by SDS-PAGE and transferred onto nitrocellulose membranes. Blocking and antibody incubations were performed in 3% BSA. The following primary antibodies were used: anti-cleavage caspase 3 (Cell Signalling); Anti-γH2AX (Millipore); anti-β-actin (Sigma). All secondary antibodies were from Jackson Immunoresearch. […]

MuSCs [2] = assay: Myogenesis (colony formation) assay; assay type: cell-based, C57BL/6J mice; conditions: MuSCs isolated from NR-treated aged mice
Method: Myogenesis assay. Five MuSCs were sorted directly into wells of a Matrigel-coated 96-well cell culture plate, containing MuSC growth medium (F10, 20% FBS, 2.5 ng/ml bFGF, 1×pen/strep), using the automated cell deposition unit (ACDU) of the FACSAria II instrument (BD Biosciences). Cells were cultured at 37° C. for 5 days. Cell colony formations were counted using the DM IL LED Inverted Microscope (Leica) after fixation in freshly made or defrosted 4% paraformaldehyde (PFA) for 10 min.

primary MuSCs = assay: Respirometry on MuSCs; assay type: cell-based, C57BL/6J mice; conditions: primary MuSCs isolated from NR-treated aged mice
Method: Respirometry on MuSCs. Basal and uncoupled oxygen consumption rates (OCRs) were measured using the Seahorse extracellular flux bioanalyzer (XF96, Seahorse Bioscience Inc.). To uncouple mitochondria, 5 uM of FCCP was injected after a basal respiration measurement. All measurements were performed in triplicates and results were normalized to total cell number seeded (primary MuSCs) assessed using a Bradford kit (Bio-Rad).

C2C12 myoblasts [3] = assay: Western blot of UPRmt markers, prohibitins and cell cycle proteins in NR-treated C2C12 myoblasts; assay type: cell-based, mouse
Method: Western blotting performed as described in Example 3. The following primary antibodies were used: anti-HSP60 (Enzo Life Science); anti-β-actin (Sigma); anti-PHB (Biolegend); anti-PHB2 (Santa Cruz); anti-CKD4 (Novus biologicals); anti-CCND1 (Santa Cruz); anti-CCND3 (Santa Cruz); anti-HSP90 (BD Biosciences); HSP70 (Abcam); and anti-CLPP (Sigma). Cell culture and treatments were prepared according to description of Example 3. C2C12 mouse myoblasts were grown in DMEM (4.5 g/1 glucose, Gibco) supplemented with 10% FBS and penicillin/streptomycin (1×, Gibco). Cell transformation with Phb (Santa Cruz) and Phb2 shRNA (Santa Cruz) were performed using jetPEI DNA transfection kit (Polyplus), according to manufacturer's instructions. Cells were treated with 1 mM NR or PBS for 6 hours before cell harvesting or fixation. Respirometry on C2C12 myoblasts. Basal and uncoupled oxygen consumption rates (OCRs) and the extracellular acidification rate (ECAR) was measured using the Seahorse extracellular flux bioanalyzer (XF96, Seahorse Bioscience Inc.). To uncouple mitochondria, 5 uM of FCCP was injected after a basal respiration measurement. All measurements were performed in triplicates and results were normalized to total protein amount (C2C12 cells), assessed using a Bradford kit (Bio-Rad).

MuSCs [4] = assay: MuSC numbers in NR-treated Mdx mice (FACS, PAX7 immunostaining); assay type: in vivo
Method: Animals. Young (1 month old) and aged (20-24 months old) C57BL/6JRj mice, purchased from Janvier Labs, and five weeks old male C57BL/10SnJ mice or C57BL/10ScSn-Dmdmdx/J, purchased from The Jackson Laboratory, were fed with pellets containing vehicle or NR (400 mg/kg/day) for 6-8 weeks. The pellets were prepared by mixing powdered chow diet (D12450B, Research Diets Inc.) with water or with NR dissolved in water. Pellets were dried under a laminar flow hood for 48 hours. All mice were housed in micro-isolator cages in a room illuminated from 7:00 am -7:00 pm with ad libitum access to diet and water.
FACS based muscle stem cell isolation. Gastrocnemius, soleus, quadriceps, and tibialis anterior muscles from both limbs were excised and transferred into PBS on ice. All muscles were trimmed, minced and digested with 0.1 mg/ml of type II collagenase (Sigma) in PBS for 15 min at 37° C. Samples were then centrifuged at 750 g for 5 min and further digested in 1 mg/ml of collagenase/dispase (Roche) for 30 mins at 37° C. Muscle slurries were sequentially filtered through 100, 70 and 40 μm cell strainers. […] Stained cells were analysed and sorted using the FACSAria II instrument (BD Biosciences). […]

NC(=O)c1ccc[n+]([C@@H]2O[C@H](CO)[C@@H](O)[C@H]2O)c1 [NR, nicotinamide riboside]
expression of cell senescence and apoptosis markers (γH2AX, cleaved caspase3) (C2C12 myoblasts [1]): reduced the expression of cell senescence and apoptosis markers | myogenic colony formation (proliferation ability) (MuSCs [2]): enhanced potential to form myogenic colonies | oxidative respiration (primary MuSCs): trend in oxidative respiration was replicated | dependence of NR effects on cell senescence on prohibitins (C2C12 myoblasts [3]; C2C12, Phb1 and Phb2 shRNA knockdown with 6-hour NR treatment, overexpression, FIG. 5C,D): PHB-dependent | Phb1 and Phb2 expression (C2C12 myoblasts [3]; C2C12 myoblasts, NR treatment, FIG. 5A): induced Phb1 and Phb2 expression | UPRmt markers (HSP60, CLPP) (C2C12 myoblasts [3]; NR-treated C2C12 mouse myoblasts, FIG. 5A): similarly induced | increase of MuSC numbers in vivo (MuSCs [4]; Mdx mice, NR 400 mg/kg/day in diet, FACS, FIG. 6B-D): ~1.8 fold | MuSC numbers by PAX7 immunostaining (MuSCs [4]; NR-treated Mdx mice, FIG. 6E): confirmed by PAX7 immunostaining
